Data taken from patent publication US20100266716A1, “Natural Photodynamic Agents and their use” (priority 2007, published 2010).

How the values were obtained:
Format in all cases: cell-based
Pseudomonas syringae HB9 = assay: Photodynamic activity on plant bacterial pathogen (Example 4)
Description: Test microorganism included Pseudomonas syringae, a food spoilage microorganism and plant pathogen. Test Compounds included Hemin (blood product), Annatto Extract, and Turmeric. Compounds were prepared as 1%, 0.1%, 0.01%, by weight, in 30% Mueller Hinton Broth in phosphate buffered saline. The light source was a broad spectrum fluorescent light or an LED light and the contact time was 16 hours. The study temperature was 28° C.
Approximately 10^6 organisms in 150 uL Cationic
Adjusted Mueller Hinton Broth were placed in each of the wells of a 96 peg MBEC device. The lid of the 96 peg MBEC device was placed on the bottom plate containing organism. The device was placed on a shaker, set to 110 rpm, and incubated at 28° C. for 24 hours.
The challenge plates were set up using a sterile 96-well microtitre plate using aseptic techniques in the following manner (one organism per plate, per light exposure time, per light source). Test solutions (200 uL) were placed into each well. The lid was transferred to the challenge plate and exposed to the various light sources for the prescribed exposure times (16 hours). Following the treatment, the pegs were transferred to the recovery media (“recovery plate”) then wrapped in tin foil and incubated at 28° C. for 18 to 24 hours.
The recovery plate(s) was wrapped in tin foil, incubated at 28° C. for 24 hours and read visually and by a plate reader, set to an optical density measurement of 630 nm, to determine MBEC growth.

Staphylococcus aureus [1] = assay: Photocatalytic food dyes Log10 counts (Example 2); conditions: Staph. aureus
Text: (§1) Test microorganisms included Salmonella choleraesuis, Staphylococcus aureus, foodborne pathogens of humans. Test Compounds included Methylene blue, Hemoglobin (blood product), Hemin (blood product), Protoporphyrin (blood product), Annatto Extract (15% Norbixin), beet juice, Canthaxanthin (10%), Beta-carotene (1%), Purple carmine 50%, Carmine lake 60%, Black Carrot extract, Tomato lycopene (5%), sodium copper chlorophyllin, grape skin extract, paprika oleoresin, riboflavin, saffron, titanium dioxide, FD&C blue No1., turmeric oleoresin, FD&C blue No. 2, FD&C Green No. 3, FD&C Red No. 2 (Amaranth), FD&C Red No. 40, FD&C Yellow No. 5, and FD&C Yellow No. 6. Compounds were prepared as 1%, 0.1%, 0.01%, by weight, dissolved in water.
(§2) The light source was a full spectrum fluorescent light or LED light and the contact time was 1 and 16 hours. The study temperature was 37° C.
(§3) Approximately 10^6 organisms in 150 uL Cation Adjusted Mueller Hinton Broth (CAMHB) were placed in each of the wells of a 96 peg MBEC device. The lid of the 96 peg MBEC device was placed on the bottom plate containing organism. The device was placed on a shaker, set to 110 rpm, and incubated at 37° C. for 24 hours to produce biofilms.
(§4) The challenge plates were set up using a sterile 96-well microtitre plate using aseptic techniques in the following manner (one organism per plate, per light exposure time, per light source). Test solutions (200 uL) were placed into each well. The lid was transferred to the challenge plate and exposed to the various light sources for the prescribed exposure times (16 hours). Following the treatment, the pegs were transferred to the recovery media (“recovery plate”) then wrapped in tin foil and incubated at 37° C. for 18 to 24 hours. The recovery plate(s) was wrapped in tin foil, incubated at 37° C. for 24 hours and read visually and by a plate reader, set to an optical density measurement of 630 nm, to determine Minimum Biofilm Eradication Concentration (MBEC) by looking at growth or no growth.
(§5) The test was conducted as shown in Example 1, but using Hemin (blood product), Protoporphyrin (blood product), Annatto Extract, and Turmeric. The group of tests organism also included E. Coli 0157H7.

Salmonella choleraesuis [2] = assay: Photocatalytic food dyes Log10 counts (Example 2); conditions: S. choleraesuis, Control 7.28
Text: as §1, §2, §3, §4, §5

E. coli 0157H7 = assay: Photocatalytic food dyes Log10 counts (Example 2)
Text: as §1, §2, §3, §4, §5

Staphylococcus aureus [3] = assay: MBEC device biofilm photodynamic killing (Example 1); parameters: key to Killing of Staph aureus biofilm (eradication or growth): “−” = biofilm eradication at the mentioned conditions (concentration, exposure time and Light source); “+” = biofilm growth; conditions: for Killing of Staph aureus biofilm (eradication or growth): 16 Hours exposure
Text: as §1, §2, §3, §4

Salmonella choleraesuis [4] = assay: as above; parameters: key to Killing of Salmonella cholerasuis biofilm (eradication or growth): “−” = biofilm eradication at the mentioned conditions (concentration, exposure time and Light source); “+” = biofilm growth; conditions: for Killing of Salmonella cholerasuis biofilm (eradication or growth): 16 Hours exposure; for effective as photodynamic agent in killing biofilm organisms: Salmonella choleraesuis and Staphylococcus aureus biofilm, summary of Table 1
Text: as §1, §2, §3, §4

[5] = Fluorescent Light 16 hours, 0.01%
[6] = Fluorescent Light 16 hours, 0.1%
[7] = Fluorescent Light 16 hours, 0.01%, Control 6.48
[8] = Fluorescent Light 16 hours, 0.1%, Control 6.48
[9] = Fluorescent Light 16 hours, 1%, Control 6.48
[10] = LED Light 16 hours, 0.01%, Control 6.95
[11] = LED Light 16 hours, 0.1%, Control 6.95
[12] = LED Light 16 hours, 1%, Control 6.95
[13] = Fluorescent Light 16 hours, 0.01%, Control 6.51
[14] = Fluorescent Light 16 hours, 0.1%, Control 6.51
[15] = Fluorescent Light 16 hours, 1%, Control 6.51
[16] = LED Light 16 hours, 0.01%, Control 6.36
[17] = LED Light 16 hours, 0.1%, Control 6.36
[18] = LED Light 16 hours, 1%, Control 6.36

Row | Substance | Average Log10 counts (Staphylococcus aureus [1]; [7]) [Log10] | Average Log10 counts (Staphylococcus aureus [1]; [8]) [Log10] | Average Log10 counts (Staphylococcus aureus [1]; [9]) [Log10] | Average Log10 counts (Staphylococcus aureus [1]; [10]) [Log10] | Average Log10 counts (Staphylococcus aureus [1]; [11]) [Log10] | Average Log10 counts (Staphylococcus aureus [1]; [12]) [Log10] | Average Log10 counts (Salmonella choleraesuis [2]; [5]) [Log10] | Average Log10 counts (Salmonella choleraesuis [2]; [6]) [Log10] | Average Log10 counts (Salmonella choleraesuis [2]; Fluorescent Light 16 hours, 1%) [Log10] | Average Log10 counts (Salmonella choleraesuis [2]; LED Light 16 hours, 0.01%) [Log10] | Average Log10 counts (Salmonella choleraesuis [2]; LED Light 16 hours, 0.1%) [Log10] | Average Log10 counts (Salmonella choleraesuis [2]; LED Light 16 hours, 1%) [Log10] | Average Log10 counts (E. coli 0157H7; [13]) [Log10] | Average Log10 counts (E. coli 0157H7; [14]) [Log10] | Average Log10 counts (E. coli 0157H7; [15]) [Log10] | Average Log10 counts (E. coli 0157H7; [16]) [Log10] | Average Log10 counts (E. coli 0157H7; [17]) [Log10] | Average Log10 counts (E. coli 0157H7; [18]) [Log10] | Killing of Staph aureus biofilm (eradication or growth) (Staphylococcus aureus [3]; Fluorescent Light, 0.01%) | Killing of Staph aureus biofilm (eradication or growth) (Staphylococcus aureus [3]; Fluorescent Light, 0.1%) | other results
1 | Hemin | 2.21 | 0.79 | 0.00 | 5.52 | 3.75 | 1.51 | 2.79 | 3.85 | 4.55 | 4.02 | 4.48 | 4.74 | 3.17 | 3.79 | 3.06 | 4.18 | 4.22 | 0.00 | + | + | Average Log10 growth reductions (Pseudomonas syringae HB9; [5]): 1.07 log10 CFU; Average Log10 growth reductions (Pseudomonas syringae HB9; [6]): 0.92 log10 CFU; Average Log10 growth reductions (Pseudomonas syringae HB9; Fluorescent Light 16 hours, 1%): 1.51 log10 CFU; Average Log10 growth reductions (Pseudomonas syringae HB9; LED Light 16 hours, 0.01%): 1.48 log10 CFU; Average Log10 growth reductions (Pseudomonas syringae HB9; LED Light 16 hours, 0.1%): 1.32 log10 CFU; Average Log10 growth reductions (Pseudomonas syringae HB9; LED Light 16 hours, 1%): 3.97 log10 CFU; Killing of Staph aureus biofilm (eradication or growth) (Staphylococcus aureus [3]; Fluorescent Light, 1%): +; Killing of Staph aureus biofilm (eradication or growth) (Staphylococcus aureus [3]; LED Light, 0.01%): +; Killing of Staph aureus biofilm (eradication or growth) (Staphylococcus aureus [3]; LED Light, 0.1%): +; Killing of Staph aureus biofilm (eradication or growth) (Staphylococcus aureus [3]; LED Light, 1%): +; Killing of Salmonella cholerasuis biofilm (eradication or growth) (Salmonella choleraesuis [4]; Fluorescent Light, 0.01%): −; Killing of Salmonella cholerasuis biofilm (eradication or growth) (Salmonella choleraesuis [4]; Fluorescent Light, 0.1%): −; Killing of Salmonella cholerasuis biofilm (eradication or growth) (Salmonella choleraesuis [4]; Fluorescent Light, 1%): −; Killing of Salmonella cholerasuis biofilm (eradication or growth) (Salmonella choleraesuis [4]; LED Light, 0.01%): +; Killing of Salmonella cholerasuis biofilm (eradication or growth) (Salmonella choleraesuis [4]; LED Light, 0.1%): +; Killing of Salmonella cholerasuis biofilm (eradication or growth) (Salmonella choleraesuis [4]; LED Light, 1%): −; effective as photodynamic agent in killing biofilm organisms (Salmonella choleraesuis [4]): Effective
2 | Protoporphyrin | 0.00 | 0.00 | 0.00 | 1.29 | 0.50 | 3.10 | 2.10 | 2.33 | 3.32 | 3.40 | 3.67 | 2.92 | 0.44 | 0.57 | 0.00 | 4.04 | 3.48 | 3.60 | + | + | Killing of Staph aureus biofilm (eradication or growth) (Staphylococcus aureus [3]; Fluorescent Light, 1%): +; Killing of Staph aureus biofilm (eradication or growth) (Staphylococcus aureus [3]; LED Light, 0.01%): +; Killing of Staph aureus biofilm (eradication or growth) (Staphylococcus aureus [3]; LED Light, 0.1%): +; Killing of Staph aureus biofilm (eradication or growth) (Staphylococcus aureus [3]; LED Light, 1%): +; concentration at which useful against Staph A (Staphylococcus aureus [3]; fluorescent light): greater than 0.1%; Killing of Salmonella cholerasuis biofilm (eradication or growth) (Salmonella choleraesuis [4]; Fluorescent Light, 0.01%): −; Killing of Salmonella cholerasuis biofilm (eradication or growth) (Salmonella choleraesuis [4]; Fluorescent Light, 0.1%): −; Killing of Salmonella cholerasuis biofilm (eradication or growth) (Salmonella choleraesuis [4]; Fluorescent Light, 1%): −; Killing of Salmonella cholerasuis biofilm (eradication or growth) (Salmonella choleraesuis [4]; LED Light, 0.01%): +; Killing of Salmonella cholerasuis biofilm (eradication or growth) (Salmonella choleraesuis [4]; LED Light, 0.1%): +; Killing of Salmonella cholerasuis biofilm (eradication or growth) (Salmonella choleraesuis [4]; LED Light, 1%): −; concentration at which useful against Salmonella (Salmonella choleraesuis [4]; LED light): greater than 1%; effective as photodynamic agent in killing biofilm organisms (Salmonella choleraesuis [4]): Effective; concentration at which useful against Salmonella (Salmonella choleraesuis [4]; fluorescent light): greater than 0.01%
